Results taken from patent US20230278958A1 (Merck Patent GmbH, priority 2020, published 2023).

Legend:
NCI-H226 cells = test: Viability assay in NCI-H226 (Yap-dependent) cells, CyQUANT; type: cell-based; conditions: Homo sapiens, 96 hour incubation
Procedure: The ability of YAP-TEAD inhibitors to inhibit tumor cell growth was evaluated using two different cell lines: NCI-H226, which is a YAP dependent cell line, and SW620 cells, where YAP and TAZ were knocked out using CRISPR to generate a YAP independent cell line.
For the assay, cells were treated in duplicates with the test compounds in a 10-point dose, 1:3 dilution steps, with the top concentration starting at 30 μM (final concentration in assay). After a 96 hour incubation at 37° C., 95% rH, and 5% CO2, a cell-permeant DNA-binding dye that stains only healthy cells (CyQUANT®, Promega) was added to the cells, allowing the quantification of cell viability.
Cell Media: The NCI-H226 cells were cultured in the following media: RPMI 1640, +10% FBS, +1× GlutaMAX, +10 mM HEPES, +0.5% Pen/Strep. The SW620-KO cells were cultured in the following media: DMEM/F-12, +10% FBS, +1× GlutaMAX, +10 mM HEPES, +0.5% Pen/Strep.
(§1) Reagents: The reagents used are listed below:
(§2) Cell culture: The cells were examined using an inverted microscope to check for health, cell density, etc. To dissociate adherent cells, the monolayer of cells was washed once with pre-warmed PBS. After removing the PBS, 3 ml pre-warmed Accutase was added to a F75 flask, dispersed evenly and the flask was allowed to sit in incubator for ˜4-5 minutes.
(§3) When a single cell suspension was obtained, 7 ml of prewarmed growth media was added and resuspended with the cells. The cell suspension was transferred to a sterile 15 ml conical centrifuge tube, and spun for 5 min at 300×g, RT. The supernatant was discarded and the pellet was resuspended in 10 ml of pre-warmed growth media.
(§4) The total cell count was determined, and 20 μl of the desired cell number was added to each well of a 384 well plate using a Multidrop Combi. The plates were then incubated for 24 hours at 37° C., 95% rH, and 5% CO2.
(§5) Compound treatment: 24 hours after seeding, the cells were treated with compounds.
(§6) A 1:333 dilution of compounds, diluted in DMSO, was made to get a final concentration of 0.3% DMSO per well. To transfer the compounds to the assay plate, 120 nl was shot from Labcyte low dead volume plates to the cell plates containing 20 μl media/well with the ECHO 555 liquid handling system.
(§7) After treatment, the cells were fed with 20 μl fresh pre-warmed assay media using a Multidrop combi.
The assay plates were then incubated for 96 h at 37° C., 95% rH, and 5% CO2.
96h after treatment 30 μl of CyQuant® reagent was added to the assay plates using a Multidrop combi in the dark. The plates were then incubated for 1 hour at 37° C., 95% rH and 5% CO2. Thereafter, the assay plates were removed from the incubator and allowed to equilibrate to RT for 30 min in the dark without lid. Finally, they were measured using an EnVision microplate reader with a FITC bottom read program.
Experimental data in the Viability assay of the compounds shown in Table 1 are shown in Table 3 below and classified in the following groups: […]

YAP-TEAD interaction = test: SK-HEP-1 reporter assay (8x TEAD responsive elements driving NanoLuc luciferase); type: cell-based; conditions: Homo sapiens, SK-HEP1; SK-HEP-1 TEAD-NanoLuc reporter cells, 24 hour incubation, luciferase readout
Procedure: To identify inhibitors of YAP-TEAD interaction, 8× TEAD responsive elements driving the NanoLuc® luciferase gene were stably integrated into SK-HEP-1 cells (ECACC #: 91091816).
For the assay, cells were treated in duplicates with the test compounds in a 10-point dose, with the top concentration starting at 30 μM (final concentration in assay). After a 24 hour incubation at 37° C., 95% rH, and 5% CO2, a luciferase substrate/lysis reagent mix (NanoGlo™, Promega) was added to the cells, allowing the quantification of cellular luciferase activity.
Cell Media: The cells were cultured in the following media: MEM, +10% FBS, +1× GlutaMAX, +1 mM Sodium-Pyruvate, +100 μM Non-essential amino acids, +0.1 mg/ml Hygromycin. The media used for the assay was: MEM (w/o Phenol Red), +10% FBS, +1× GlutaMAX, +1 mM Sodium-Pyruvate, +100 μM Non-essential amino acids, +0.5% Pen/Strep
as §1
as §2, with “health and” for “health,”, “density.” for “density, etc.”, “Accutase®” for “Accutase”
as §3, §4, §5, §6, §7
The assay plates were then incubated for another 24 h at 37° C., 95% rH, and 5% CO2.
Luciferase readout: 24 h after treatment, the plates were taken out of the incubator and were allowed to equilibrate to RT. 30 μl of NanoGlo® reagent was added to the plates in the dark. Plates were shaken for 20 min on a Teleshake (˜1500 rpm) in the dark. The luminescence was then measured using an EnVision microplate reader. The IC50 values were generated using Genedata Screener®.
Experimental data in SK-HEP-1 reporter assay of the compounds shown in Table 1 are shown in Table 2 below and classified in the following groups: […]

| SMILES | IC50 (NCI-H226 cells) [µM] | IC50 (YAP-TEAD interaction) [nM] |
| --- | --- | --- |
| Cc1ccc2c(c1)c1cc(C(=O)NC(C)CO)ccc1n2-c1ccc(C(F)(F)F)cc1 (stereo not drawn) [Compound 39, N-(1-hydroxypropan-2-yl)-6-methyl-9-[4-(trifluoromethyl)phenyl]-9H-carbazole-3-carboxamide] | 0.001 to 0.1 | 10 to 100 |
| Cc1ccc2c(c1)c1cc(C(=O)NCC(C)O)ccc1n2-c1ccc(C(F)(F)F)cc1 (stereo not drawn) [Compound 40, N-(2-hydroxypropyl)-6-methyl-9-[4-(trifluoromethyl)phenyl]-9H-carbazole-3-carboxamide] | 0.001 to 0.1 | 10 to 100 |
| Cc1ccc2c(c1)c1cc(C(=O)NCC(C)(C)O)ccc1n2-c1ccc(C(F)(F)F)cc1 [Compound 43, N-(2-hydroxy-2-methylpropyl)-6-methyl-9-[4-(trifluoromethyl)phenyl]-9H-carbazole-3-carboxamide] | 0.1 to 1 | 100 to 1000 |
| Cc1ccc2c(c1)c1cc(C(=O)N[C@](C)(CO)c3ccccc3)ccc1n2-c1ccc(C(F)(F)F)cc1 [Compound 46, N-[(2S)-1-hydroxy-2-phenylpropan-2-yl]-6-methyl-9-[4-(trifluoromethyl)phenyl]-9H-carbazole-3-carboxamide] | 0.1 to 1 | 100 to 1000 |
| CCc1ccc2c(c1)c1cc(C(=O)O)ccc1n2-c1ccc(C(F)(F)F)cc1 [Compound 47, 6-ethyl-9-[4-(trifluoromethyl)phenyl]-9H-carbazole-3-carboxylic acid] | 0.001 to 0.1 | 1 to 10 |
| Cc1ccc2c(c1)c1cc(C(N)=O)ccc1n2-c1ccc(C(F)(F)F)cc1 [Compound 48, 6-methyl-9-[4-(trifluoromethyl)phenyl]-9H-carbazole-3-carboxamide] | 0.1 to 1 | 10 to 100 |
| Cc1ccc2c(c1)c1cc(C(=O)N3CCC(O)C3)ccc1n2-c1ccc(C(F)(F)F)cc1 (stereo not drawn) [Compound 49, 1-{6-methyl-9-[4-(trifluoromethyl)phenyl]-9H-carbazole-3-carbonyl}pyrrolidin-3-ol] | 0.1 to 1 | 100 to 1000 |
| Cc1ccc2c(c1)c1cc(C(=O)N3CCCC(O)C3)ccc1n2-c1ccc(C(F)(F)F)cc1 (stereo not drawn) [Compound 50, 1-{6-methyl-9-[4-(trifluoromethyl)phenyl]-9H-carbazole-3-carbonyl}piperidin-3-ol] | 0.1 to 1 | 100 to 1000 |
| Cc1ccc2c(c1)c1cc(C(=O)NCc3ccccn3)ccc1n2-c1ccc(C(F)(F)F)cc1 [Compound 51, 6-methyl-N-[(pyridin-2-yl)methyl]-9-[4-(trifluoromethyl)phenyl]-9H-carbazole-3-carboxamide] | 0.1 to 1 | 100 to 1000 |
| Cc1ccc2c(c1)c1cc(C(=O)NCc3cccnc3)ccc1n2-c1ccc(C(F)(F)F)cc1 [Compound 52, 6-methyl-N-[(pyridin-3-yl)methyl]-9-[4-(trifluoromethyl)phenyl]-9H-carbazole-3-carboxamide] | 0.001 to 0.1 | 100 to 1000 |
| Cc1ccc2c(c1)c1cc(C(=O)NC3(CO)CCC3)ccc1n2-c1ccc(C(F)(F)F)cc1 [Compound 54, N-[1-(hydroxymethyl)cyclobutyl]-6-methyl-9-[4-(trifluoromethyl)phenyl]-9H-carbazole-3-carboxamide] | 0.1 to 1 | 100 to 1000 |
| Cc1ccc2c(c1)c1cc(C(=O)N[C@@H](CO)C3CCC3)ccc1n2-c1ccc(C(F)(F)F)cc1 [Compound 56, N-[(1R)-1-cyclobutyl-2-hydroxyethyl]-6-methyl-9-[4-(trifluoromethyl)phenyl]-9H-carbazole-3-carboxamide] | 0.001 to 0.1 | 10 to 100 |
| Cc1ccc2c(c1)c1cc(C(=O)N[C@H](c3ccccc3)[C@H](C)O)ccc1n2-c1ccc(C(F)(F)F)cc1 [Compound 58, N-[(1R,2S)-2-hydroxy-1-phenylpropyl]-6-methyl-9-[4-(trifluoromethyl)phenyl]-9H-carbazole-3-carboxamide] | 0.1 to 1 | 100 to 1000 |
| Cc1cc2c3cc(C(=O)O)ccc3n(-c3ccc(C(F)(F)F)cc3)c2cc1C [Compound 62, 6,7-dimethyl-9-[4-(trifluoromethyl)phenyl]-9H-carbazole-3-carboxylic acid] | 0.1 to 1 | 1 to 10 |
| Cc1ccc2c(c1)c1cc(C(=O)O)ccc1n2-c1ccc(OC(F)(F)F)cc1 [Compound 63, 6-methyl-9-[4-(trifluoromethoxy)phenyl]-9H-carbazole-3-carboxylic acid] | 1 to 10 | 1 to 10 |

The next lines start with the values.

| IC50 (NCI-H226 cells) [µM] | IC50 (YAP-TEAD interaction) [nM] | SMILES |
| --- | --- | --- |
| 0.1 to 1 | 100 to 1000 | Cc1ccc2c(c1)c1cc(C(=O)NC(CO)C(C)C)ccc1n2-c1ccc(C(F)(F)F)cc1 (stereo not drawn) [Compound 41, N-(1-hydroxy-3-methylbutan-2-yl)-6-methyl-9-[4-(trifluoromethyl)phenyl]-9H-carbazole-3-carboxamide] |
| 0.001 to 0.1 | 10 to 100 | CCC(CO)NC(=O)c1ccc2c(c1)c1cc(C)ccc1n2-c1ccc(C(F)(F)F)cc1 (stereo not drawn) [Compound 42] |
| 0.1 to 1 | 100 to 1000 | Cc1ccc2c(c1)c1cc(C(=O)NCCn3ccnc3)ccc1n2-c1ccc(C(F)(F)F)cc1 [Compound 44, 6-Methyl-9-(4-trifluoromethyl-phenyl)-9H-carbazole-3-carboxylic acid (2-imidazol-1-yl-ethyl)-amide] |
| 0.1 to 1 | 100 to 1000 | Cc1ccc2c(c1)c1cc(C(=O)NCc3nccn3C)ccc1n2-c1ccc(C(F)(F)F)cc1 [Compound 45] |
| 0.001 to 0.1 | 10 to 100 | Cc1ccc2c(c1)c1cc(C(=O)NCc3ccncn3)ccc1n2-c1ccc(C(F)(F)F)cc1 [Compound 53, 6-methyl-N-[(pyrimidin-4-yl)methyl]-9-[4-(trifluoromethyl)phenyl]-9H-carbazole-3-carboxamide] |
| 0.001 to 0.1 | 10 to 100 | Cc1ccc2c(c1)c1cc(C(=O)NCC(O)CO)ccc1n2-c1ccc(C(F)(F)F)cc1 (stereo not drawn) [Compound 55, N-(2,3-dihydroxypropyl)-6-methyl-9-[4-(trifluoromethyl)phenyl]-9H-carbazole-3-carboxamide] |
| 0.1 to 1 | 100 to 1000 | Cc1ccc2c(c1)c1cc(C(=O)N[C@H]3COC[C@@H]3O)ccc1n2-c1ccc(C(F)(F)F)cc1 [Compound 57, N-[(3S,4R)-4-hydroxyoxolan-3-yl]-6-methyl-9-[4-(trifluoromethyl)phenyl]-9H-carbazole-3-carboxamide] |
| 0.1 to 1 | 10 to 100 | Cc1ccc2c(c1)c1cc(C(=O)NCc3ccncc3)ccc1n2-c1ccc(C(F)(F)F)cc1 [Compound 59, 6-methyl-N-[(pyridin-4-yl)methyl]-9-[4-(trifluoromethyl)phenyl]-9H-carbazole-3-carboxamide] |
| 0.1 to 1 | 100 to 1000 | COCCC(CO)NC(=O)c1ccc2c(c1)c1cc(C)ccc1n2-c1ccc(C(F)(F)F)cc1 (stereo not drawn) [Compound 61, N-(1-hydroxy-4-methoxybutan-2-yl)-6-methyl-9-[4-(trifluoromethyl)phenyl]-9H-carbazole-3-carboxamide] |
